# Measured values as given in patent US6794372B2, “Nitrate salts of antimicrobial agents” (Nicox S.A., priority 2000, dated 2004).
# Columns and labels:
# [1] = test system: Escherichia Coli (ATCC25922); assay: Dilution test in vitro on medium for antibacterial agents, strain E. Coli; type: cell-based; details: CAMH broth, 5×10^5 CFU/ml, 35° C. for 20 hr, read with the naked eye
# Description: (§1) Dilution Test in vitro on Medium for Antibacterial Agents
# The capability to antagonize the arising of the microbial resistance of the nitrate salts of the antimicrobial compounds in comparison with that of the respective precursors has been evaluated.
# (§2) Such activity has been determined by using the dilution method in vitro on culture medium as described by Sahm et al. (S. D. Sahm, J. A. Washington “Antibacterial susceptibility tests: dilution methods” in: Manual of Clinical Microbiology, ed. A. Balows, W. J. Hausler, Jr, K. L. Hermann, H. D. Isenberg, H. J. Shadomy, 1991, American Society for Microbiology). According to this method a concentration in aqueous solution of substance having antimicrobial activity able to inhibit the growth of some bacterial strains is determined. For the precursor the maximum concentration of the substance at which the microbial growth is still observed under the adopted experimental conditions is selected and the same concentration is used for the corresponding nitrate salt. The solvents and the necessary dilutions for preparing the strain substances of the antibiotics to be tested are prepared according to procedures standard and well known to the person skilled in the field (National Committee for Clinical Laboratory Standards, 1990 “Methods for dilution antimicrobial susceptibility tests for bacteria that grow aerobically. Approved standard M7-A2. National Committee for Clinical Laboratory Standards, Villanova, Pa.). Also the preparation of the culture medium is carried out according to standard procedures and the CAMH broth is used (Cation-adjusted Mueller-Hinton broth) (National Committee for Clinical Laboratory Standards, 1990, Methods for dilution antimicrobial susceptibility tests for bacteria that grow aerobically. Approved standard M7-A2. National Committee for Clinical Laboratory Standards, Villanova, Pa.).
# (§3) The inoculation procedure is carried out according to standard procedures and the final concentration of the inocolum is of 5×10^5 CFU (colony forming unit)/ml. The used microorganisms have been Escherichia Coli (ATCC25922) and Staphylococcus Aureus (ATCC29213).
# (§4) The test tubes are incubated at 35° C. for 20 hr before reading. The microbial growth, or the absence of the same, is determined in a qualitative way, with the naked eye and it indicates the microbial resistance or, respectively, the sensitivity to the antimicrobial agent.
# [2] = test system: Staphylococcus Aureus (ATCC29213); assay: Dilution test in vitro on medium for antibacterial agents, strain S. Aureus; type: cell-based; details: CAMH broth, 5×10^5 CFU/ml, 35° C. for 20 hr, read with the naked eye
# Description: as §1, §2, §3, §4
smiles,measurement,setting,value
CC1(C)S[C@@H]2[C@H](NC(=O)[C@H](N)c3ccccc3)C(=O)N2[C@H]1C(=O)O [Ampicillin],RESPONSE (microbial growth),[1]; concentration 1.0 μg/ml,Growth
"CC[C@H]1OC(=O)[C@H](C)[C@@H](O[C@H]2C[C@@](C)(OC)[C@@H](O)[C@H](C)O2)[C@H](C)[C@@H](O[C@@H]2O[C@H](C)C[C@H](N(C)C)[C@H]2O)[C@](C)(O)C[C@@H](C)C(=O)[C@H](C)[C@@H](O)[C@]1(C)O.O=[N+]([O-])O [Erythromycin.HNO3, Erythromycin nitrate salt]",RESPONSE (microbial growth),[2]; concentration 0.06 μg/ml,No growth
"CCCC1CC(C(=O)NC(C(C)Cl)C2OC(SC)C(O)C(O)C2O)N(C)C1.O=[N+]([O-])O (centres unmarked) [Clindamycin.HNO3, Clindamycin nitrate salt]",RESPONSE (microbial growth),[2]; concentration 0.03 μg/ml,No growth
COc1cc(Cc2cnc(N)nc2N)cc(OC)c1OC [Trimethoprim],RESPONSE (microbial growth),[2]; concentration 0.5 μg/ml,Growth
"Cc1nnc(SCC2=C(C(=O)O)N3C(=O)[C@@H](NC(=O)Cn4cnnn4)[C@H]3SC2)s1.O=[N+]([O-])O [Cefazolin.HNO3, Cefazolin nitrate salt]",RESPONSE (microbial growth),[1]; concentration 0.5 μg/ml,No growth
Cc1nnc(SCC2=C(C(=O)O)N3C(=O)[C@@H](NC(=O)Cn4cnnn4)[C@H]3SC2)s1 [Cefazolin],RESPONSE (microbial growth),[1]; concentration 0.5 μg/ml,Growth
"COc1cc(Cc2cnc(N)nc2N)cc(OC)c1OC.O=[N+]([O-])O [Trimethoprim.HNO3, Trimethoprim nitrate salt]",RESPONSE (microbial growth),[2]; concentration 0.5 μg/ml,No growth
CCC[C@@H]1C[C@@H](C(=O)N[C@@H]([C@H]2O[C@H](SC)[C@H](O)[C@@H](O)[C@H]2O)[C@H](C)Cl)N(C)C1 [Clindamycin],RESPONSE (microbial growth),[2]; concentration 0.03 μg/ml,Growth
Cc1cc(NS(=O)(=O)c2ccc(N)cc2)no1 [Sulfamethoxazole],RESPONSE (microbial growth),[2]; concentration 20 μg/ml,Growth
"CC1(C)S[C@@H]2[C@H](NC(=O)[C@H](N)c3ccccc3)C(=O)N2[C@H]1C(=O)O.O=[N+]([O-])O [Ampicillin.HNO3, Ampicillin nitrate salt]",RESPONSE (microbial growth),[1]; concentration 1.0 μg/ml,No growth
"Cc1cc(NS(=O)(=O)c2ccc(N)cc2)no1.O=[N+]([O-])O [Sulfamethoxazole.HNO3, Sulfamethoxazole nitrate salt]",RESPONSE (microbial growth),[2]; concentration 20 μg/ml,No growth
O=C(O)c1cn(C2CC2)c2cc(N3CCNCC3)c(F)cc2c1=O [Ciprofloxacin],RESPONSE (microbial growth),[2]; concentration 0.05 μg/ml,Growth
"O=C(O)c1cn(C2CC2)c2cc(N3CCNCC3)c(F)cc2c1=O.O=[N+]([O-])O [Ciprofloxacin.HNO3, Ciprofloxacin nitrate salt]",RESPONSE (microbial growth),[2]; concentration 1.0 μg/ml,No growth
CC[C@H]1OC(=O)[C@H](C)[C@@H](O[C@H]2C[C@@](C)(OC)[C@@H](O)[C@H](C)O2)[C@H](C)[C@@H](O[C@@H]2O[C@H](C)C[C@H](N(C)C)[C@H]2O)[C@](C)(O)C[C@@H](C)C(=O)[C@H](C)[C@@H](O)[C@]1(C)O [Erythromycin],RESPONSE (microbial growth),[2]; concentration 0.06 μg/ml,Growth
